Data reported in article PMC12024912, “Druggability Studies of Benzene Sulfonamide Substituted Diarylamide (E3) as a Novel Diuretic” (Biomedicines, 2025).
Read-outs that look alike come from different tables or passages of the source.

Assays:
[1] = Intestinal microbiota stability, mouse; format: in vitro ADME
Protocol: (§1) Plasma from mice, rats, rabbits, and humans was obtained from blood after centrifugation at 3000 r/min for 10 min. Simulated gastric fluid (SGF, pH = 1, containing pepsin) and simulated intestinal fluid (SIF, pH = 6.8, containing trypsin) were configured previously in the experiments. SD rats and mice were collected, and after removing the mucus layer from the small intestine and colon, 20 times the volume of liquid bacterial culture medium was added. An intestinal microbiota suspension was obtained after anaerobic cultivation on a shaking table at 37 °C for 12 h. In the aforementioned systems, E3 was added at a final concentration of 1 μmol/L at 37 °C for different incubation times (0, 10, 20, 30, 60, 120, and 240 min). In liver metabolic stability assays, E3 was incubated with liver microsomes or liver homogenate from mice or rats for 60 min at 37 °C. The stop solution, 5 ng/mL tolbutamide (internal standard, IS) in acetonitrile, was added to stop the metabolic process. Post-centrifugation (18,000× g, 10 min, 4 °C), supernatants were subjected to liquid chromatography–tandem mass spectrometry (LC–MS/MS). Analyte-to-IS peak area ratios quantified residual percentages via Equation (2):Remaining% = (E3peak area/ISpeak area at different time)/(E3peak area/ISpeak area at 0 min) × 100%.(2)

[2] = Liver homogenate metabolic stability, rat; format: in vitro ADME
Protocol: as §1

Blood stability, rat = format: in vitro ADME; conditions: plasma, n=3
Protocol: as §1

SD rats = experiment: Diuretic effect of single intragastric administration in rats (metabolic cages); format: in vivo, rat
Protocol: In a single-dose administration experiment, male wild-type (WT) mice, UT-B^-/- mice, UT-A1^-/- mice, or SD rats were adapted in metabolic cages for 3 d. Food and water were provided ad libitum throughout the experiment. Prior to administration, the bladder of each animal was emptied through gentle abdominal massage, and urine was collected from the metabolic cages every 2 h. Compound E3, suspended in 0.5% CMC-Na at an appropriate concentration, was administered intragastric gavage to the mice or rats (0.16, 0.8, 4, or 20 mg/kg). Vehicle control comprised 0.5% (w/v) CMC-Na. Urinary parameters were determined through the following: volume: Gravimetric analysis (1 g/mL density assumption); osmolality: freezing-point osmometry (Micro-osmometer, […] Associates, Norwood, MA, USA); and urea: diacetyl oxime colorimetry (QuantiChrom® kit, Elabscience, Wuhan, China). In long-term (7 d) diuretic activity experiments, male WT mice, UT-B^-/- mice, UT-A1^-/- mice, and SD rats were acclimatized in metabolic cages (Ugo Basile, Comerio, VA, Italy) for 3 d. Food and water were provided ad libitum throughout the experiment. E3 was suspended in 0.5% CMC-Na and administered at a dose of 4 or 20 mg/kg by intragastric gavage. Urine was collected by metabolic cages every 24 h. Body weight was measured daily. At 4 h after the final administration, a blood sample was obtained by heart puncture. Inner medulla and outer medulla tissue homogenates were prepared, and the supernatant after centrifugation was analyzed for solute concentration and osmolality. Urinary osmolality and urea concentration were measured as above. Serum Na^+, K^+, and Cl^- were measured in a clinical chemistry laboratory, while serum creatinine, ALT, and AST were measured through specific reagent kits (NJJC Bio, Nanjing, China).

UT-B = molecular target: T1, UT-B (Rattus norvegicus, UniProt P97689); experiment: Stopped-flow measurement of erythrocyte urea permeability; format: cell-based
T1 construct: endogenous in cells; host or cells: erythrocytes from male SD rats
T1 sequence (P97689 1-384): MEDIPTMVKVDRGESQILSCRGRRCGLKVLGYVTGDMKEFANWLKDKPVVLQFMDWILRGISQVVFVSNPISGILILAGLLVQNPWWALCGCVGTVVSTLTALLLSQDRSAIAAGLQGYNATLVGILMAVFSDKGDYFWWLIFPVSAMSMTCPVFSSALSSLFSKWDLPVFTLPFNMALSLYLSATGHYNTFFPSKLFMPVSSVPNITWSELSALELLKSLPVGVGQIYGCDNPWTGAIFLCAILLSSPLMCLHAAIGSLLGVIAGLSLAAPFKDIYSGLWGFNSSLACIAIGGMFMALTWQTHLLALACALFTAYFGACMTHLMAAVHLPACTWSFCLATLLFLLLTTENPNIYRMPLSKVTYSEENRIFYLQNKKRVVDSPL
Protocol: Erythrocyte urea permeabilities were assessed via stopped-flow light scattering (SX20, Applied Photophysics, Leatherhead, UK) following established protocols. Erythrocyte was acquired from rat blood and suspended in isotonic PBS (hematocrit 0.5%). Then, the erythrocyte was incubated with test compounds for 5 min and quickly mixed with 500 mmol/L urea dissolved in PBS. Following an initial osmotic shrinking phase, the kinetics of cell volume increase due to urea influx were measured by monitoring the time course of 90° scattered light intensity at 530 nm. […] Keep samples and PBS at 4 °C to reduce the influence of free diffusion. To assay reversibility, compounds were added to erythrocytes for 5 min and then washed with PBS 3 times by 2000 r/min centrifugation before stopped-flow measurements. To determine inhibition on urea efflux, erythrocytes were incubated with 500 mmol/L urea in PBS for 2 h, then mixed with PBS without urea.

hERG K+ channel = molecular target: T2, hERG K+ channel (Homo sapiens, UniProt Q12809); experiment: hERG K+ channel tail current, QPatch, CHO-hERG cells; format: cell-based
T2 construct: expressed in transfected cells; host or cells: CHO-hERG cells
Protocol: CHO-hERG cells were maintained in F12 medium (Gibco, Thermo Fisher Scientific, Waltham, MA, USA) containing 10% FBS and 0.5 mg/mL Geneticin (Invitrogen, Thermo Fisher Scientific, Waltham, MA, USA) under standard culture conditions (37 °C, 5% CO2). Cells were seeded 2 days prior to reaching 70% confluency, then washed with PBS and detached using 5 mL Detachin (Genlantis, San Diego, CA, USA) at 37 °C for 2~3 min. Cell suspensions (2 × 10^6 cells/mL in F12) were prepared and equilibrated for 20 min in the QStir station of the QPatch-16 system (Sophion Bioscience, Copenhagen, Denmark) before electrophysiological recordings.
hERG channel tail currents were assessed using the QPatch automated platform. Recording solutions contained (mM): Internal: KCl 120, CaCl2 5.374, MgCl2 1.75, KOH 31.25, EGTA 10, HEPES 10, Na2ATP 4 (pH 7.2); External: NaCl 145, KCl 4, MgCl2 1, CaCl2 2, HEPES 10, glucose 10 (pH 7.4)
Cells were voltage-clamped at −80 mV with series resistance monitored during −100 mV hyperpolarization. The stimulation protocol included: (1) 200 ms baseline at −50 mV; (2) 2s depolarization to +20 mV; and (3) tail current recording at −50 mV. Signals were acquired at 2 kHz through the integrated Bessel filter. Concentration-response relationships were established by sequential compound applications bracketed with saline controls for normalization.

T2 sequence (Q12809 whole entry): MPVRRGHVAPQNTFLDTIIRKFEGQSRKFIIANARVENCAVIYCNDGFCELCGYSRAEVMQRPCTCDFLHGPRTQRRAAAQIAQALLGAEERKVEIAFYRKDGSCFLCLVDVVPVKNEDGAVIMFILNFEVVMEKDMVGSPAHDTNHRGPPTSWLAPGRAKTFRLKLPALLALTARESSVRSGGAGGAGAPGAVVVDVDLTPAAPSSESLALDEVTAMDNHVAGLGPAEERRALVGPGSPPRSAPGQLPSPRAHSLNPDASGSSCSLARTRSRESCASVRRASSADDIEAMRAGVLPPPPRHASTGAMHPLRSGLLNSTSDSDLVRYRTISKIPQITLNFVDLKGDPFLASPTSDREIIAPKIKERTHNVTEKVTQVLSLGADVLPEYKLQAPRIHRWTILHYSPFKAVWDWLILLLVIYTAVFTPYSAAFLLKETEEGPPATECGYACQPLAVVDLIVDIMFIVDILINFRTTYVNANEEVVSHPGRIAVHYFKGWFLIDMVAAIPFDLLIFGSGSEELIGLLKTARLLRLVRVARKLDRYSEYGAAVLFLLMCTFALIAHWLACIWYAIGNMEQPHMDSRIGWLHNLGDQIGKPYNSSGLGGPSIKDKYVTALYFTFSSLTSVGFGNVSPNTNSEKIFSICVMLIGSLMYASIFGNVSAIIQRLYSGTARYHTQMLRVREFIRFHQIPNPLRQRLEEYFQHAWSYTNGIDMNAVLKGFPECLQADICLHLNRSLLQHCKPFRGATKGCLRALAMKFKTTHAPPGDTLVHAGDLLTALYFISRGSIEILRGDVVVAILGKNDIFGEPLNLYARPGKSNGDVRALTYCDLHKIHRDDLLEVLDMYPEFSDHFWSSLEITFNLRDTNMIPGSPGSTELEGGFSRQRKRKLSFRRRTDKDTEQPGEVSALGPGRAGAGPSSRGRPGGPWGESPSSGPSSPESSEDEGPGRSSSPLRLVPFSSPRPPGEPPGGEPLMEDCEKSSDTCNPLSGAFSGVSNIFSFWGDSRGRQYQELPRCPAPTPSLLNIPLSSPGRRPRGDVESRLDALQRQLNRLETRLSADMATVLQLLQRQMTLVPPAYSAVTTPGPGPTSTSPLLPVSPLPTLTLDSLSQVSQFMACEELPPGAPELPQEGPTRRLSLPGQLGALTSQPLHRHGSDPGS

## CC(=O)c1ccc(C(=O)Nc2cccc(NS(=O)(=O)c3ccccc3)c2)o1 [Compound E3, 5-acetyl-N-(3-(phenylsulfonamido)phenyl)furan-2-carboxamide]
[1]; colon microbiota suspension, n=3, read-out: Mouse colon microbiota (remaining %)
  remaining at 4 h, 1 μmol/L: 89.3%
[1]; small intestine microbiota suspension, n=3, read-out: Mouse small intestine microbiota (remaining %)
  remaining at 4 h, 1 μmol/L: 87.3%
[2]; calculated with 45 mg/g liver, 40 g liver/kg
  CLhep, rat liver homogenate: 46.4 mL/min/kg
[2]; rat, liver homogenate, 60 min incubation, 37 °C, n=3
  remaining at 1 h: 69%
Blood stability, rat
  remaining at 1 μmol/L: 46.8%
SD rats; single intragastric gavage
  urinary osmolality: decreased
  urinary urea: decreased
SD rats; single intragastric gavage 0.16-20 mg/kg, vs vehicle
  urine output: significantly increased
SD rats; single intragastric gavage, vs control
  excretion of non-urea solutes: not significantly different
UT-B; 1 μM followed by washout with PBS
  reversibility of UT-B inhibition: reversible
UT-B; stopped-flow light scattering, rat erythrocytes
  UT-B-mediated urea influx into erythrocytes: dose-dependently inhibit
UT-B; stopped-flow, erythrocytes preloaded with high urea, mixed with isotonic PBS
  UT-B-mediated urea efflux: inhibited UT-B-mediated urea efflux in a dose-dependent manner
hERG K+ channel
  IC50: > 33.3 µM
